ChEMBL document CHEMBL1649194, “Pharmacokinetics of intracameral voriconazole injection” (Antimicrob Agents Chemother, 2009)

Experiments:
[1] = Drug level in New Zealand White rabbit eye aqueous humor at 25 ug/25 ul administered as intracameral injection measured after 15 mins; type: ADME, tissue-based, Oryctolagus cuniculus; conditions: topical or ocular, read-out: Drug uptake
[2] = Drug level in New Zealand White rabbit eye aqueous humor at 25 ug/25 ul administered as intracameral injection measured after 30 mins; type: ADME, tissue-based, Oryctolagus cuniculus; conditions: topical or ocular, read-out: Drug uptake
[3] = Drug level in New Zealand White rabbit eye aqueous humor at 25 ug/25 ul administered as intracameral injection measured after 45 mins; type: ADME, tissue-based, Oryctolagus cuniculus; conditions: topical or ocular, read-out: Drug uptake
[4] = Drug level in New Zealand White rabbit eye aqueous humor at 25 ug/25 ul administered as intracameral injection measured after 60 mins; type: ADME, tissue-based, Oryctolagus cuniculus; conditions: topical or ocular, read-out: Drug uptake
[5] = Drug level in New Zealand White rabbit eye aqueous humor at 25 ug/25 ul administered as intracameral injection measured after 90 mins; type: ADME, tissue-based, Oryctolagus cuniculus; conditions: topical or ocular, read-out: Drug uptake
[6] = Drug level in New Zealand White rabbit eye aqueous humor at 25 ug/25 ul administered as intracameral injection measured after 120 mins; type: ADME, tissue-based, Oryctolagus cuniculus; conditions: topical or ocular, read-out: Drug uptake
[7] = Drug level in New Zealand White rabbit eye aqueous humor at 25 ug/25 ul administered as intracameral injection measured after 150 mins; type: ADME, tissue-based, Oryctolagus cuniculus; conditions: topical or ocular, read-out: Drug uptake
[8] = Drug level in New Zealand White rabbit eye aqueous humor at 25 ug/25 ul administered as intracameral injection measured after 180 mins; type: ADME, tissue-based, Oryctolagus cuniculus; conditions: topical or ocular, read-out: Drug uptake
[9] = Half life in human eye administered as intracameral injection; type: ADME, tissue-based
[10] = Half life in human serum; type: ADME, cell-free
[11] = Half life in rabbit serum; type: ADME, cell-free, Oryctolagus cuniculus
[12] = Half life in New Zealand White rabbit eye aqueous humor at 25 ug/25 ul administered as intracameral injection; type: ADME, tissue-based, Oryctolagus cuniculus, Aqueous humor of eyeball; conditions: topical or ocular
[13] = Half life in New Zealand White rabbit eye administered as intracameral injection; type: ADME, tissue-based, Oryctolagus cuniculus; conditions: topical or ocular

C[C@@H](c1ncncc1F)[C@](O)(Cn1cncn1)c1ccc(F)cc1F [VORICONAZOLE]
concentration at 0.25 h [1]: 25400 ng/mL | concentration at 0.5 h [2]: 13500 ng/mL | concentration at 0.75 h [3]: 7730 ng/mL | concentration at 1 h [4]: 5100 ng/mL | concentration at 1.5 h [5]: 2670 ng/mL | concentration at 2 h [6]: 1400 ng/mL | concentration at 2.5 h [7]: 390 ng/mL | concentration at 3 h [8]: 150 ng/mL | half-life ([9]; eye, topical or ocular): 3.27 h | half-life [10]: 6.5 h | half-life [11]: 2.5 h | half-life [12]: 0.367 h

NCC[C@H](O)C(=O)N[C@@H]1C[C@H](N)[C@@H](O[C@H]2O[C@H](CN)[C@@H](O)[C@H](O)[C@H]2O)[C@H](O)[C@H]1O[C@H]1O[C@H](CO)[C@@H](O)[C@H](N)[C@H]1O [AMIKACIN]
half-life [13]: 0.58 h

GENTAMICIN
t1/2 ([9]; topical_or_ocular): 0.85 h
